Reference: EPA's ToxValDB 9.5
One block for each compound: values may come before it.

Tests used:
Rattus norvegicus [1] = assay: FEL; higher = less toxic; settings: reproduction developmental; duration: 54 days; oral; gavage; F; Wistar; generation: P0; P0: Whole Body: Mortality
Rattus norvegicus [2] = settings: oral, gavage
Mus musculus [3] = settings: chronic; duration: 2 years; oral; diet; M/F; B6C3F1; Urinary
Canidae [4] = settings: oral, M/F, Beagle
Rattus norvegicus [5] = settings: duration: 7 days, oral, M, Reduced proportion of time spent in open field central zones, increased immobility time in the open field, reduced proportion of time spent …
Canidae [6] = settings: duration: 26 weeks, oral, capsule, M/F, Beagle, Liquid feces
Canidae [7] = settings: chronic; duration: 26 weeks; oral; capsule; M/F; Beagle; gastrointestinal
Rattus norvegicus [8] = settings: M/F
Oryctolagus sp. [9] = settings: M, reproductive
Oryctolagus sp. [10] = settings: subchronic; duration: 13 weeks; inhalation; M; testicular effects
Oryctolagus sp. [11] = settings: subchronic; duration: 10 weeks; oral; drinking water; M; Dutch-belted; Endocrine
Rattus norvegicus [12] = settings: subchronic, oral, diet, Fischer 344, Hematology: Hct decrease, Hgb decrease, RBC decrease + Blood Chemistry: CPK increase + Absolute Organ Weight: Liver decrease + Relative …
Mus musculus [13] = settings: repeat dose other; oral
Tatera sp. = settings: intermediate; duration: 3 months; Inhalation; M/F; Mongolian; neurological
Homo sapiens = settings: clinical; duration: 3.5 hours; inhalation; M; neurological
[14] = developmental, duration: 54 days, M/F, Wistar, generation: F1, F1: Developmental: Whole Body: Dams with Stillborn Pups + F1: Developmental: Whole Body: External Abnormalities + F1: Developmental: Whole …
[15] = developmental, duration: 54 days, generation: F1, F1: Developmental: Whole Body: Dams with Liveborn Pups
[16] = reproduction developmental, duration: 28 days, M, Wistar, generation: P0, P0: Reproductive: Reproductive Organs: Reproductive Organ Histopathology + P0: Reproductive: Whole Body: Copulation Index
[17] = reproduction developmental, duration: 28 days, M, Wistar, generation: P0, P0: Whole Body: Copulation Index
[18] = reproduction developmental, duration: 54 days, F, Wistar, generation: P0, P0: Developmental: Uterus: Implantation + P0: General Toxicity: Whole Body: Clinical Observations + P0: General Toxicity: Whole Body: …
[19] = reproduction developmental, duration: 54 days, F, Wistar, generation: P0, P0: Reproductive: Reproductive Organs: Reproductive Organ Histopathology + P0: Reproductive: Whole Body: Copulation Index + P0: Reproductive…
[20] = reproduction developmental, duration: 54 days, F, Wistar, generation: P0, P0: Reproductive: Whole Body: Length of Gestation
[21] = reproduction developmental, duration: 54 days, F, Wistar, generation: P0, P0: Whole Body: Clinical Observations + P0: Whole Body: Maternal Body Weight + P0: Whole Body: Maternal Body Weight Change
[22] = reproduction developmental, duration: 54 days, F, Wistar, generation: P0, P0: Whole Body: Copulation Index
[23] = reproduction developmental, duration: 54 days, F, Wistar, generation: P0, P0: Whole Body: Length of Gestation + P0: Whole Body: Mortality
[24] = reproduction developmental, duration: 54 days, M/F, Wistar, generation: F1, F1: Whole Body: Litter Weight
[25] = short-term, duration: 28 days, M, Wistar, Adrenal: Adrenal Gland Histopathology + Dermal: Ruffled Fur + Liver: Liver Histopathology + Nerve: Nervous Tissue Histopathology + …
[26] = short-term, duration: 28 days, M, Wistar, Adrenal: Adrenal Gland Weight, Relative + Liver: Liver Weight, Absolute + Lung: Lung Histopathology + Lung: Respiration Distress + Thymus: …
[27] = short-term, duration: 28 days, M, Wistar, Endocrine: Adrenal: Adrenal Gland Histopathology + Endocrine: Adrenal: Adrenal Gland Weight, Absolute + Endocrine: Adrenal: Adrenal Gland …
[28] = short-term, duration: 28 days, M, Wistar, Other Systems: Eye: Ophthalmology + Other Systems: Lung: Lung Histopathology + Other Systems: Lung: Respiration Distress
[29] = subchronic, duration: 54 days, F, Wistar, Adrenal: Adrenal Gland Histopathology + Liver: Liver Histopathology + Nerve: Nervous Tissue Histopathology + Whole Body: Function …
[30] = subchronic, duration: 54 days, F, Wistar, Dermal: Ruffled Fur + Lung: Lung Histopathology + Lung: Respiration Distress + Peripheral Nervous System: Paresis + Thymus: Thymus …
[31] = subchronic, duration: 54 days, F, Wistar, Endocrine: Adrenal: Adrenal Gland Histopathology + Endocrine: Adrenal: Adrenal Gland Weight, Absolute + Endocrine: Adrenal: Adrenal Gland …
[32] = subchronic, duration: 54 days, F, Wistar, Other Systems: Eye: Ophthalmology + Other Systems: Lung: Lung Histopathology + Other Systems: Lung: Respiration Distress
[33] = reproduction developmental, oral, Reduced body weight gain preceding pregnancy reduced body weight gain in offspring during weaning period

- NEL (Rattus norvegicus [2]; reproduction developmental, duration: 28 days, M, Wistar, generation: P0, P0: Reproductive Organs: Reproductive Organ Histopathology): 125 mg/kg-day
- LEL (Rattus norvegicus [2]; [17]): 125 mg/kg-day
- NEL (Rattus norvegicus [2]; [17]): 100 mg/kg-day
- NEL (Rattus norvegicus [2]; reproduction developmental, duration: 54 days, F, Wistar, generation: P0, P0: Reproductive Organs: Reproductive Organ Histopathology + P0: Whole Body: Fertility Index): 125 mg/kg-day
- NEL (Rattus norvegicus [2]; reproduction developmental, duration: 54 days, F, Wistar, generation: P0, P0: Uterus: Implantation): 125 mg/kg-day
- LEL (Rattus norvegicus [2]; [22]): 125 mg/kg-day
- NEL (Rattus norvegicus [2]; [22]): 100 mg/kg-day
- NEL (Rattus norvegicus [2]; reproduction developmental, duration: 54 days, M/F, Wistar, generation: F1, F1: Whole Body: Dams with Liveborn Pups): 125 mg/kg-day
- NEL (Rattus norvegicus [2]; reproduction developmental, duration: 54 days, M/F, Wistar, generation: F1, F1: Whole Body: Dams with Stillborn Pups + F1: Whole Body: External Abnormalities + F1: Whole Body: Litter Size + F1: Whole Body: Male Pups …): 125 mg/kg-day
- LEL (Rattus norvegicus [2]; [24]): 100 mg/kg-day
- NEL (Rattus norvegicus [2]; [24]): 50 mg/kg-day
- LEL (Rattus norvegicus [2]; [25]): 100 mg/kg-day
- NEL (Rattus norvegicus [2]; [25]): 50 mg/kg-day
- NEL (Rattus norvegicus [2]; short-term, duration: 28 days, M, Wistar, Adrenal: Adrenal Gland Weight, Absolute + Blood: Hematology, Unspecified + Eye: Ophthalmology, Unspecified + Kidney: Urinalysis, Unspecified…): 150 mg/kg-day
- LEL (Rattus norvegicus [2]; [26]): 150 mg/kg-day
- NEL (Rattus norvegicus [2]; [26]): 100 mg/kg-day
- LEL (Rattus norvegicus [2]; [29]): 100 mg/kg-day
- NEL (Rattus norvegicus [2]; [29]): 50 mg/kg-day
- NEL (Rattus norvegicus [2]; subchronic, duration: 54 days, F, Wistar, Adrenal: Adrenal Gland Weight, Absolute + Adrenal: Adrenal Gland Weight, Relative + Blood: Hematology, Unspecified + Eye: Ophthalmology, …): 150 mg/kg-day
- LEL (Rattus norvegicus [2]; [30]): 150 mg/kg-day
- NEL (Rattus norvegicus [2]; [30]): 100 mg/kg-day
Compound: CCO[Si](CCC(F)(F)C(F)(F)C(F)(F)C(F)(F)C(F)(F)C(F)(F)F)(OCC)OCC [Triethoxy((perfluorohexyl)ethyl)silane]
- FEL (Rattus norvegicus [1]): 125 mg/kg-day
- LOAEL (Rattus norvegicus [2]; [14]): 100 mg/kg-day
- NOAEL (Rattus norvegicus [2]; [14]): 50 mg/kg-day
- LOAEL (Rattus norvegicus [2]; [15]): 100 mg/kg-day
- NOAEL (Rattus norvegicus [2]; [15]): 50 mg/kg-day
- LOAEL (Rattus norvegicus [2]; [16]): 125 mg/kg-day
- NOAEL (Rattus norvegicus [2]; [16]): 100 mg/kg-day
- LOAEL (Rattus norvegicus [2]; [18]): 100 mg/kg-day
- NOAEL (Rattus norvegicus [2]; [18]): 50 mg/kg-day
- LOAEL (Rattus norvegicus [2]; [19]): 125 mg/kg-day
- NOAEL (Rattus norvegicus [2]; [19]): 100 mg/kg-day
- LOAEL (Rattus norvegicus [2]; [20]): 125 mg/kg-day
- NOAEL (Rattus norvegicus [2]; [20]): 100 mg/kg-day
- LEL (Rattus norvegicus [2]; [21]): 100 mg/kg-day
- NEL (Rattus norvegicus [2]; [21]): 50 mg/kg-day
- LEL (Rattus norvegicus [2]; [23]): 125 mg/kg-day
- NEL (Rattus norvegicus [2]; [23]): 100 mg/kg-day
- LOAEL (Rattus norvegicus [2]; [27]): 100 mg/kg-day
- NOAEL (Rattus norvegicus [2]; [27]): 50 mg/kg-day
- NOAEL (Rattus norvegicus [2]; short-term, duration: 28 days, M, Wistar, Hematologic: Blood: Hematology, Unspecified + Urinary: Kidney: Urinalysis): 125 mg/kg-day
- LOAEL (Rattus norvegicus [2]; [28]): 125 mg/kg-day
- NOAEL (Rattus norvegicus [2]; [28]): 100 mg/kg-day
- LOAEL (Rattus norvegicus [2]; [31]): 100 mg/kg-day
- NOAEL (Rattus norvegicus [2]; [31]): 50 mg/kg-day
- NOAEL (Rattus norvegicus [2]; subchronic, duration: 54 days, F, Wistar, Hematologic: Blood: Hematology, Unspecified + Urinary: Kidney: Urinalysis): 125 mg/kg-day
- LOAEL (Rattus norvegicus [2]; [32]): 125 mg/kg-day
- NOAEL (Rattus norvegicus [2]; [32]): 100 mg/kg-day
- LEL (Rattus norvegicus [2]; subchronic, duration: 54 days, F, Wistar, Whole Body: Maternal Body Weight): 50 mg/kg-day

Compound: COC(=O)c1cc(Oc2ccc(Cl)cc2Cl)ccc1[N+](=O)[O-] [Bifenox]
- LOAEL (Mus musculus [3]): 7 mg/kg-day
- NOAEL (Canidae [4]; chronic, duration: 52 weeks, capsule, hepatic): 145 mg/kg-day

Compound: CC1(C)C(C=C(Cl)C(F)(F)F)C1C(=O)OC(C#N)c1cccc(Oc2ccccc2)c1 (stereo not drawn) [alpha-Cyhalothrin]
- NOEL (Rattus norvegicus [5]; neurotoxicity): 1 mg/kg-day
- NOEL (Rattus norvegicus [5]; short-term): 1 mg/kg-day
- LOEL (Canidae [6]; chronic): 1 mg/kg-day
- LOEL (Canidae [6]): 1 mg/kg-day
- NOAEL (Canidae [7]): 1 mg/kg-day
- LEL (Rattus norvegicus [8]; [33]): 1.5 mg/kg-day
- NOEL (Rattus norvegicus [8]; [33]): 0.5 mg/kg-day

Compound: ClCC(Br)CBr (stereo not given) [1,2-Dibromo-3-chloropropane]
- NOAEL (Oryctolagus sp. [9]; chronic, duration: 14 weeks, inhalation, New Zealand): 0.967 mg/m3
- LOAEL (Oryctolagus sp. [9]; subchronic, duration: 10 weeks, oral, drinking water, Dutch belted): 1.88 mg/kg-day
- LOAEL (Oryctolagus sp. [10]): 9.4 mg/m3
- NOAEL (Oryctolagus sp. [10]): 0.94 mg/m3
- NOAEL (Oryctolagus sp. [11]): 0.7 mg/kg-day

Compound: O=P(c1ccccc1)(c1ccccc1)c1ccccc1 [Triphenylphosphine oxide]
- LOAEL (Canidae [4]; subchronic, duration: 7 weeks, gavage): 50 mg/kg-day

Compound: CC(Cl)(Cl)Cl [1,1,1-Trichloroethane]
- NOEL (Rattus norvegicus [12]; F): 310 mg/kg-day
- NOEL (Rattus norvegicus [12]; M/F): 480 mg/kg-day
- NOAEL (Mus musculus [13]): 1000 mg/kg-day
- NOAEL (Tatera sp.): 70 ppm
- LOAEL (Homo sapiens): 955 mg/m3
- NOAEL (Rattus norvegicus [8]; chronic, duration: 2 years, inhalation, liver histopathologic changes): 8190 mg/m3
